Measurements published in patent US12122802B2, “D-allose crystal and production method thereof” (MATSUTANI CHEMICAL INDUSTRY CO., LTD., priority 2019, dated 2024).
Values belong to the molecule of their own block, whether it stands above or below them.

Experiments:
Format in all cases: physicochemical
[1] = repose angle measured by powder tester PT-E (fluidity of anhydrous D-allose crystals); conditions: for Repose angle (degrees): anhydrous crystals of Test Nos. 1 to 12, hydrous crystals dried with evaporator (30° C., 20 hPa (abs), about 2 hours), average of three directions
Procedure: The fluidity of the anhydrous D-allose crystals obtained by drying the hydrous crystals obtained in each of Tests Nos. 1 to 12 with an evaporator (30° C., 20 hPa (abs), about 2 hours) as described above was evaluated by the repose angle measured by a powder tester PT-E (manufactured by Hosokawa Micron Corporation). Specifically, a sample was dropped and deposited on a disk, and the inclination angle was measured from three directions to obtain an average value. From the average value, the degree of fluidity was evaluated according to Table 1 in the Japanese Pharmacopoeia, 17th edition, Reference Information G2 physical property-related “Powder Fluidity” (same as the so-called Carr's fluidity index table, shown as Table 4).
In order to measure the water content in the crystals obtained by each of the drying methods, drying under reduced pressure under conditions at 70° C. for 18 hours was performed to calculate the water content in the crystals from the weight loss through the drying under reduced pressure. The repose angle was measured by the method described above to determine the degree of fluidity. The yield rate was calculated by the following expression. Yield rate (%)=(D/C)×100 [Expression 4]

[2] = particle size distribution by laser diffraction (Mastersizer 3000, dry dispersion unit Aero S); conditions: average of 5 measurements, dispersion pressure 1.0 bar
Source text: The melting point (Tm) in the DSC refers to the melting start temperature of the endothermic peak obtained by DSC measurement (temperature at the extrapolated intersection of the base line and the maximum slope line of the endothermic peak), and the melting enthalpy (ΔH) refers to the area of the endothermic peak (ASTM D3418-15, Standard Test Method for Transition Temperatures and Enthalpies of Fusion and Crystallization of Polymers by Differential Scanning calorimetry). Further, in the present invention, the average particle size refers to the volume-based average particle size d[4,3], which is usually measured with a laser diffraction particle size distribution analyzer.
Next, the particle size distribution of the anhydrous D-allose crystals of the present invention was examined. Specifically, the anhydrous D-allose crystals obtained in the previous Test Nos. 1 to 5, 7 to 10 and 12, were subjected to measurement of particle size distribution under the measurement conditions shown in Table 7 using “Mastersizer 3000” and a “dry dispersion unit Aero S” manufactured by Malvern Instruments. More specifically, the measurement was repeated 5 times, and the average value of the 5 times measurements was used. No great variability was seen among the 5 times measurement values. The particle size distribution was expressed on a volume basis, and the volume-based average particle size d[4,3] and standard deviation σ were recorded. Also, the coefficient of variation CV=σ/d[4,3] was calculated in order to relatively evaluate the variation in the particle size distribution.

[3] = aspect ratio of crystals from microscopic picture (Digital microscope VHX-5000, 50x)
Source text: The “anhydrous D-allose crystals” of the present invention have an extremely large average particle size as described above and are not in a fine needle form, having a characteristic aspect ratio of the crystal. In the present invention, the aspect ratio refers to the ratio of the long diameter to the short diameter of a crystal (short diameter: minimum length of lines passing through the center of gravity of the plane shape of a crystal, long diameter: maximum length of a crystal measured orthogonal to the short diameter). In the present specification, the aspect ratio in a numerical range from A to B (A and B: arbitrary numbers) means that all of the aspect ratios of a specified number (preferably at least 10, for example 10) of crystal particles randomly selected are within the numerical range. Example of random selection of crystal particles includes a method comprising taking a microscopic picture of crystals at 20× to 50× magnification and, from the crystals on the diagonal line drawn from the upper left to the lower right of the microscopic picture taken, selecting 10 crystals with a full body shown in order from the upper left on the diagonal line. Specifically, the aspect ratio is preferably 1.0 to 10.0, more preferably 2.0 to 8.0, still more preferably 2.0 to 7.0. Next, the aspect ratio of the anhydrous D-allose crystals of the present invention was examined. Specifically, a microscopic picture of each of the anhydrous D-allose crystals obtained in the previous Test Nos. 1 to 5, 7 to 10 and 12 were taken using “Digital microscope VHX-5000” manufactured by KEYENCE Corporation (50×magnification). Among the crystals on the diagonal line drawn from the upper left to the lower right of the microscopic picture taken, 10 crystals with a full picture shown were selected in order from the upper left and then the long diameter and the short diameter of each crystal were measured for calculation of the aspect ratio (Long diameter/Short diameter, wherein short diameter refers to minimum length of lines passing through the center of gravity of the plane shape of a crystal, and long diameter refers to maximum length of a crystal measured orthogonal to the short diameter). The minimum value of the aspect ratio was 1.1 and the maximum value was 9.6 (Table 9).

SMILES: O=C[C@H](O)[C@H](O)[C@H](O)[C@H](O)CO [Test No. 1, D-allose]
Repose angle (degrees) ([1]; listed as 1): 43.0 degrees | d [4, 3] (volume-based average particle size) ([2]; listed as 1): 472 μm | Aspect ratio (Long diameter/Short diameter) ([3]; crystal ① of 10 selected, listed as 1): 3.5 | Aspect ratio (Long diameter/Short diameter) ([3]; crystal ② of 10 selected, listed as 1): 3.4 | Aspect ratio (Long diameter/Short diameter) ([3]; crystal ③ of 10 selected, listed as 1): 4.1 | Aspect ratio (Long diameter/Short diameter) ([3]; crystal ④ of 10 selected, listed as 1): 4.4 | Aspect ratio (Long diameter/Short diameter) ([3]; crystal ⑤ of 10 selected, listed as 1): 4.5 | Aspect ratio (Long diameter/Short diameter) ([3]; crystal ⑥ of 10 selected, listed as 1): 2.2 | Aspect ratio (Long diameter/Short diameter) ([3]; crystal ⑦ of 10 selected, listed as 1): 4.3 | Aspect ratio (Long diameter/Short diameter) ([3]; crystal ⑧ of 10 selected, listed as 1): 3.6 | Aspect ratio (Long diameter/Short diameter) ([3]; crystal ⑨ of 10 selected, listed as 1): 3.5 | Aspect ratio (Long diameter/Short diameter) ([3]; crystal ⑩ of 10 selected, listed as 1): 4.1

SMILES: O=C[C@H](O)[C@H](O)[C@H](O)[C@H](O)CO [Test No. 2, D-allose]
Repose angle (degrees) ([1]; listed as 2): 42.7 degrees | d [4, 3] (volume-based average particle size) ([2]; listed as 2): 563 μm | Aspect ratio (Long diameter/Short diameter) ([3]; crystal ① of 10 selected, listed as 2): 2.9 | Aspect ratio (Long diameter/Short diameter) ([3]; crystal ② of 10 selected, listed as 2): 3.0 | Aspect ratio (Long diameter/Short diameter) ([3]; crystal ③ of 10 selected, listed as 2): 3.5 | Aspect ratio (Long diameter/Short diameter) ([3]; crystal ④ of 10 selected, listed as 2): 3.5 | Aspect ratio (Long diameter/Short diameter) ([3]; crystal ⑤ of 10 selected, listed as 2): 3.0 | Aspect ratio (Long diameter/Short diameter) ([3]; crystal ⑥ of 10 selected, listed as 2): 5.5 | Aspect ratio (Long diameter/Short diameter) ([3]; crystal ⑦ of 10 selected, listed as 2): 2.6 | Aspect ratio (Long diameter/Short diameter) ([3]; crystal ⑧ of 10 selected, listed as 2): 4.9 | Aspect ratio (Long diameter/Short diameter) ([3]; crystal ⑨ of 10 selected, listed as 2): 3.0 | Aspect ratio (Long diameter/Short diameter) ([3]; crystal ⑩ of 10 selected, listed as 2): 4.1

SMILES: O=C[C@H](O)[C@H](O)[C@H](O)[C@H](O)CO [Test No. 3, D-allose]
Repose angle (degrees) ([1]; listed as 3): 42.0 degrees | d [4, 3] (volume-based average particle size) ([2]; listed as 3): 450 μm | Aspect ratio (Long diameter/Short diameter) ([3]; crystal ① of 10 selected, listed as 3): 2.5 | Aspect ratio (Long diameter/Short diameter) ([3]; crystal ② of 10 selected, listed as 3): 5.4 | Aspect ratio (Long diameter/Short diameter) ([3]; crystal ③ of 10 selected, listed as 3): 3.9 | Aspect ratio (Long diameter/Short diameter) ([3]; crystal ④ of 10 selected, listed as 3): 6.2 | Aspect ratio (Long diameter/Short diameter) ([3]; crystal ⑤ of 10 selected, listed as 3): 4.5 | Aspect ratio (Long diameter/Short diameter) ([3]; crystal ⑥ of 10 selected, listed as 3): 4.3 | Aspect ratio (Long diameter/Short diameter) ([3]; crystal ⑦ of 10 selected, listed as 3): 3.0 | Aspect ratio (Long diameter/Short diameter) ([3]; crystal ⑧ of 10 selected, listed as 3): 4.7 | Aspect ratio (Long diameter/Short diameter) ([3]; crystal ⑨ of 10 selected, listed as 3): 6.1 | Aspect ratio (Long diameter/Short diameter) ([3]; crystal ⑩ of 10 selected, listed as 3): 1.5

SMILES: O=C[C@H](O)[C@H](O)[C@H](O)[C@H](O)CO [Test No. 4, D-allose]
Repose angle (degrees) ([1]; listed as 4): 42.3 degrees | d [4, 3] (volume-based average particle size) ([2]; listed as 4): 588 μm | Aspect ratio (Long diameter/Short diameter) ([3]; crystal ① of 10 selected, listed as 4): 4.3 | Aspect ratio (Long diameter/Short diameter) ([3]; crystal ② of 10 selected, listed as 4): 4.0 | Aspect ratio (Long diameter/Short diameter) ([3]; crystal ③ of 10 selected, listed as 4): 4.2 | Aspect ratio (Long diameter/Short diameter) ([3]; crystal ④ of 10 selected, listed as 4): 2.0 | Aspect ratio (Long diameter/Short diameter) ([3]; crystal ⑤ of 10 selected, listed as 4): 6.0 | Aspect ratio (Long diameter/Short diameter) ([3]; crystal ⑥ of 10 selected, listed as 4): 1.1 | Aspect ratio (Long diameter/Short diameter) ([3]; crystal ⑦ of 10 selected, listed as 4): 3.9 | Aspect ratio (Long diameter/Short diameter) ([3]; crystal ⑧ of 10 selected, listed as 4): 8.1 | Aspect ratio (Long diameter/Short diameter) ([3]; crystal ⑨ of 10 selected, listed as 4): 3.8 | Aspect ratio (Long diameter/Short diameter) ([3]; crystal ⑩ of 10 selected, listed as 4): 4.1

The remaining lines, values ahead:

Repose angle (degrees) ([1]; listed as 5): 45.7 degrees | d [4, 3] (volume-based average particle size) ([2]; listed as 5): 498 μm | Aspect ratio (Long diameter/Short diameter) ([3]; crystal ① of 10 selected, listed as 5): 1.1 | Aspect ratio (Long diameter/Short diameter) ([3]; crystal ② of 10 selected, listed as 5): 2.7 | Aspect ratio (Long diameter/Short diameter) ([3]; crystal ③ of 10 selected, listed as 5): 3.2 | Aspect ratio (Long diameter/Short diameter) ([3]; crystal ④ of 10 selected, listed as 5): 2.9 | Aspect ratio (Long diameter/Short diameter) ([3]; crystal ⑤ of 10 selected, listed as 5): 4.7 | Aspect ratio (Long diameter/Short diameter) ([3]; crystal ⑥ of 10 selected, listed as 5): 3.0 | Aspect ratio (Long diameter/Short diameter) ([3]; crystal ⑦ of 10 selected, listed as 5): 4.9 | Aspect ratio (Long diameter/Short diameter) ([3]; crystal ⑧ of 10 selected, listed as 5): 4.1 | Aspect ratio (Long diameter/Short diameter) ([3]; crystal ⑨ of 10 selected, listed as 5): 1.6 | Aspect ratio (Long diameter/Short diameter) ([3]; crystal ⑩ of 10 selected, listed as 5): 3.8
SMILES: O=C[C@H](O)[C@H](O)[C@H](O)[C@H](O)CO [Test No. 5, D-allose]

Repose angle (degrees) ([1]; listed as 7): 41.0 degrees | Degree of fluidity ([1]; anhydrous crystals of Test Nos. 1 to 12, evaluated from repose angle according to Table 4): Passable (41~45) | d [4, 3] (volume-based average particle size) ([2]; listed as 7): 549 μm | Aspect ratio (Long diameter/Short diameter) ([3]; crystal ① of 10 selected, listed as 7): 7.2 | Aspect ratio (Long diameter/Short diameter) ([3]; crystal ② of 10 selected, listed as 7): 1.7 | Aspect ratio (Long diameter/Short diameter) ([3]; crystal ③ of 10 selected, listed as 7): 5.2 | Aspect ratio (Long diameter/Short diameter) ([3]; crystal ④ of 10 selected, listed as 7): 5.5 | Aspect ratio (Long diameter/Short diameter) ([3]; crystal ⑤ of 10 selected, listed as 7): 2.5 | Aspect ratio (Long diameter/Short diameter) ([3]; crystal ⑥ of 10 selected, listed as 7): 4.1 | Aspect ratio (Long diameter/Short diameter) ([3]; crystal ⑦ of 10 selected, listed as 7): 4.3 | Aspect ratio (Long diameter/Short diameter) ([3]; crystal ⑧ of 10 selected, listed as 7): 4.9 | Aspect ratio (Long diameter/Short diameter) ([3]; crystal ⑨ of 10 selected, listed as 7): 3.5 | Aspect ratio (Long diameter/Short diameter) ([3]; crystal ⑩ of 10 selected, listed as 7): 2.0
SMILES: O=C[C@H](O)[C@H](O)[C@H](O)[C@H](O)CO [Test No. 7, D-allose]
